Article PMC9685055, “Biological activity of new bioactive steroids deriving from biotransformation of cortisone” (Microbial Cell Factories, 2022)

Experiments:
[1] = molecular target: T1, cyclooxygenase (COX) (Ovis aries, UniProt P05979); assay: Cyclooxygenase inhibitory assay (fluorescence COX activity kit); format: biochemical; settings: purified COX preparation, 50 µM, positive control
T1 construct: purchased Cayman 700200
T1 sequence (P05979 25-600): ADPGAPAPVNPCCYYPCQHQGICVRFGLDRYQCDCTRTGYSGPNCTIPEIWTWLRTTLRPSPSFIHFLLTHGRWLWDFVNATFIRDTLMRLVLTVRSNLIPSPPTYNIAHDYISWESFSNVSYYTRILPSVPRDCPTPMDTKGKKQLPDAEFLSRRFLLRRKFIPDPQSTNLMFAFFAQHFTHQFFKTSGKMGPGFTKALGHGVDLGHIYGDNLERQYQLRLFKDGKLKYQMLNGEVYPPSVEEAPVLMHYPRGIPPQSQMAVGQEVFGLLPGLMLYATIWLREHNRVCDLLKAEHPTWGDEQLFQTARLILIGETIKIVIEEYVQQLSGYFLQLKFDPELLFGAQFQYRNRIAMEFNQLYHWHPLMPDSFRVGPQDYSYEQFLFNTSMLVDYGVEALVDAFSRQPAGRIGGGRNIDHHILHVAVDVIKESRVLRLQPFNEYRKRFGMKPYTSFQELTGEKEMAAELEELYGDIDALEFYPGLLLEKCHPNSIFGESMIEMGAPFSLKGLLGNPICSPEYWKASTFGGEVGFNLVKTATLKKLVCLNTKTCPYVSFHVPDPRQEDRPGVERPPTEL
Method: Cyclooxygenase (COX) activity assay was determined by using a fluorescence COX activity assay kit (Cayman, No. 700200) for detecting COX-1 and COX-2 activity in purified enzyme and tissue homogenate preparations. The assay was conducted by monitoring the appearance of fluorescent compound resofurin in accordance to the supplier recommendation. Aspirin (acetylsalicylic acid; 50 µM) served as positive control. The test compounds were dissolved in 1–2% DMSO (v/v) at 4 different concentrations (0.1, 1, 10 and 100 µM) and added to a purified COX preparation. A 1–2% DMSO solution was added to control plates. The plates were shaken for a few seconds and incubated for 5 min at 25 °C. The fluorescence was measured by using an excitation wavelength of 540 nm and an emission wavelength of 590 nm. Average fluorescent values were calculated for all the samples (n = 3/group) in order to determine the percentage of inhibition in respect to control (i.e. untreated) plates.

[2] = test system: p65 NF-κB nuclear translocation in HaCaT cells; assay: TNFα-induced p65 NF-κB nuclear translocation, immunofluorescence; format: cell-based; settings: positive control (betamethasone-17-valerate 10 µg/mL), then 10 ng/mL TNFα 1 h
Method: HaCaT cells were cultured with Dulbecco’s modified Eagle’s medium High Glucose (Lonza, Milan, Italy) supplemented with 10% FBS, 100 U/mL penicillin, 100 μg/mL streptomycin and 2 mM L-glutamine as previously described. Cells were maintained in a humidified incubator at 37 °C with 5% CO2 and incubated until the monolayer was 80% confluent. Medium was changed every 2 days.
HaCaT cells were pretreated with or without 10 μM of both SCA and SCB for 24 h. Stock solutions of the two compounds were prepared in DMSO immediately before use and diluted to the final concentration in the culture medium. In some sets of experiments, betamethasone-17-valerate (10 µg/mL) served as a positive control; dimethyl sulfoxide (DMSO) served as a solvent control. After the pretreatments, cells were stimulated with 10 ng/mL TNFα for 1 h to induce the NFκB signaling pathway. Then, media were replaced with fresh culture medium. Cells and supernatants were collected at different time points for each set of experiments as described below.
Briefly, HaCaT cells were seeded on coverslips at a density of 1 × 10^5 cell/mL and incubated with DMEM high glucose supplemented with FBS 10%. Then, HaCaT cells were treated as indicated above. At the end of the proinflammatory stimulus with TNFα, cells were fixed in 4% paraformaldehyde in PBS for 30 min at 4 °C as previously described. HaCaT cells were permeabilized for 5 min at RT with PBS containing 0.2% Triton X-100. After the blocking with 1% BSA in PBS at RT for 1 h, HaCaT cells were incubated with p65 NF-κB primary antibody (1:100, sc-372; Santa Cruz Biotechnology, Inc., Dallas, Texas, USA) in PBS containing 0.5% BSA at 4 °C overnight. After washing, coverslips were incubated with appropriate secondary antibody for 1 h at RT. Nuclei were stained with 1 μg/mL DAPI (Sigma- Aldrich, Italy) for 1 min. […] Fluorescence was examined using an Epifluorescence microscope (Nikon Eclipse E800; Nikon Corporation, Surrey, UK) equipped with a plan apochromat 100 × 0.5 − 1.3 oil immersion objective and a mercury lamp source.

[3] = Photochemiluminescence (PCL-ACL) antioxidant assay; settings: 0.1 mg/mL; Trolox equivalents per g of sample
Method: Photochemiluminescence assay, based on the methodology of Popov and Lewin [35], was performed to measure the antioxidant activity of cortisone, SCA and SCB compounds against superoxide anion radicals generated from luminol, a photosensitizer, when exposed to UV light at λmax = 351 nm. The antioxidant activity of compounds was measured using ACL kits (Analytic Jena, Jena, Germany) with a Photochem apparatus (Analytic Jena, Jena, Germany). In the PCL-ACL assay, the photochemical generation of free radicals is combined with the sensitive detection using chemiluminescence. In ACL studies, the kinetic light emission curve was monitored for 3 min and expressed as mM Trolox equivalents. The areas under the curves were calculated using the PCL soft control and analysis software. […] The observed inhibition of the signal was plotted against the concentration of Trolox added to the assay medium. The concentration of the added sample was such that the generated luminescence during the 3 min sampling interval fell within the limits of the standard curve. For ACL assay, 2.3 mL of reagent 1 (solvent and dilution reagent, methanol), 0.2 mL of reagent 2 (buffer solution), 25 μL of reagent 3 (photosensitizer: luminol 1 mmol L^−1), and 10 μL of standard or sample solution were mixed and measured. Luminol is used as a photosensitizer and as a detecting substance for free radicals. Trolox were used for the standard calibration curve from […].

**Q.** Which “effect on COX activity” value [1] does the source give for `CC(=O)Oc1ccccc1C(=O)O` [aspirin, acetylsalicylic acid, reference compound] here?
**A.** strongly inhibited

**Q.** Which “effect on TNFα-mediated p65 activation” value [2] does the source give for `C[C@H]1C[C@H]2[C@@H]3CCC4=CC(=O)C=C[C@]4(C)[C@@]3(F)[C@@H](O)C[C@]2(C)[C@@]1(O)C(=O)CO` [betamethasone, reference compound] here?
**A.** only partly prevented

**Q.** For `C[C@]12CCC(=O)C=C1CC[C@@H]1[C@@H]2C(=O)C[C@@]2(C)[C@H]1CC[C@]2(O)C(=O)CO` [cortisone], which “antioxidant capacity, PCL-ACL assay” value [3] is on record?
**A.** 0.13 µmol/g
